Experiments:
[1] = molecular target: T1, Cyclin-dependent kinases regulatory subunit 1/S-phase kinase-associated protein 2 (Homo sapiens) (UniProt P61024+Q13309); assay: Inhibition of GST-tagged SKP2 (unknown origin) binding to His6-tagged CKS1 (unknown origin) at 50 uM preincubated with SKP2 for 10 mins followed by CKS1 addition for 20 mins and measured after by HTRF method relative to control; type: protein assay; conditions: time 30.0 min
[2] = molecular target: T2, Cyclin-dependent kinases regulatory subunit 1/S-phase kinase-associated protein 2 (Homo sapiens, UniProt Q13309); assay: Inhibition of GST-tagged SKP2 (unknown origin) binding to His6-tagged CKS1 (unknown origin) preincubated with SKP2 for 10 mins followed by CKS1 addition for 20 mins and measured after by HTRF method; type: protein assay
T2 sequence (P61024 whole entry): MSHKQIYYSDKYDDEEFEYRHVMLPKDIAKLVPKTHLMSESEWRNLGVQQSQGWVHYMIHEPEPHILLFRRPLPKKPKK
T2 sequence (Q13309 whole entry): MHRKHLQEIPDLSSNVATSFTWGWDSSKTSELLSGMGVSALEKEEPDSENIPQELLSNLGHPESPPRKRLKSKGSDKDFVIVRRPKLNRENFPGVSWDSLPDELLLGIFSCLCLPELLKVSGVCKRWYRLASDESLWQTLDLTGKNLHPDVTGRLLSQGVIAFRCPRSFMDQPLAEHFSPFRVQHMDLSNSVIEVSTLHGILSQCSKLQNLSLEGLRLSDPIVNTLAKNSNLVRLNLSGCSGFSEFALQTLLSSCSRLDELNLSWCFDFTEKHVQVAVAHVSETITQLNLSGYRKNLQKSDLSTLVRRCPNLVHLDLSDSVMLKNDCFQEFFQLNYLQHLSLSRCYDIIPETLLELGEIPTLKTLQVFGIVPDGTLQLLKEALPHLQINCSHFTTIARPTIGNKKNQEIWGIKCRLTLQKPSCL

[3] = molecular target: T2, Cyclin-dependent kinases regulatory subunit 1/S-phase kinase-associated protein 2; assay: Inhibition of GST-tagged SKP2 (unknown origin) binding to His6-tagged CKS1 (unknown origin) incubated for 1 hr by AlphaScreen assay; type: protein assay
[4] = molecular target: T1, Cyclin-dependent kinases regulatory subunit 1/S-phase kinase-associated protein 2 (Homo sapiens); assay: Inhibition of GST-tagged SKP2 (unknown origin) to His6-tagged CKS1 (unknown origin) protein protein interaction at 50 umol/L by HTRF method relative to control; type: protein assay; conditions: dose 50.0 µmol/L
[5] = system: A549; assay: Antiproliferative activity against human A549 cells incubated for 48 hrs by MTT assay; type: functional, cell-based; conditions: A549, 48 h
[6] = system: MGC-803; assay: Inhibition of cell proliferation in human MGC-803 cells incubated for 72 hrs by MTT assay; type: functional, cell-based; conditions: MGC-803, 72 h
[7] = system: PC-3; assay: Inhibition of cell proliferation in human PC-3 cells incubated for 72 hrs by MTT assay; type: functional, cell-based; conditions: PC-3, 72 h

T1 sequence (P61024 2-79 limits assumed): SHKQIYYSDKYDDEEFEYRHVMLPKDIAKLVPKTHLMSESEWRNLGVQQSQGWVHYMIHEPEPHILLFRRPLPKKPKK
T1 sequence (Q13309 whole entry partner): as the sequence (Q13309 whole entry) above

SMILES | inhibition [1] [%] | IC50 [2] [µM] | further results
COc1cc(OC)c(-c2cc(C)nc3nc(SCc4ccncc4)nn23)c(OC)c1 | 10 | > 100 | –
O=C(OCC12CC3CC(CC(C3)C1)C2)c1ccc(NCc2cc(O)ccc2O)cc1 | – | – | IC50 [3]: 36.6 µM
COc1cc(OC)c(-c2cc(C)nc3nc(SCc4ccc(C(F)(F)F)cc4)nn23)c(OC)c1 | 27.1 | 93.1 | –
COc1cc(OC)c(-c2cc(C)nc3nc(SCc4ccccc4Br)nn23)c(OC)c1 | 43 | 66.7 | –
COc1ccc(N2C(=O)c3ccccc3C2Cc2cc(-c3c(OC)cc(O)cc3OC)n3ncnc3n2)cc1 (configuration not stated) | – | – | inhibition [4]: 54%
COc1cc(C2=NC3=NC(C)=C(C(C)=O)C(c4ccc([N+](=O)[O-])cc4)N3N2)cc(OC)c1OC (configuration not stated) | – | – | IC50 [5]: 1.02 µM
COc1cc(OC)c(-c2cc(C)nc3nc(SCc4ccc(Br)cc4)nn23)c(OC)c1 | 69.6 | 11.9 | –
COC(=O)c1cccc(CSc2nc3nc(C)cc(-c4c(OC)cc(OC)cc4OC)n3n2)c1 | 10.2 | > 100 | –
C=CCSc1nc2nc(C)cc(-c3c(OC)cc(OC)cc3OC)n2n1 | 2.51 | > 100 | –
COc1cc(OC)c(-c2cc(C)nc3nc(SCc4ccccc4)nn23)c(OC)c1 | 60 | 14.7 | –
COc1cc(OC)c(-c2cc(C)nc3nc(SCc4ccc(C)cc4)nn23)c(OC)c1 | 11.5 | > 100 | –
CCSc1nc2nc(C)cc(-c3c(OC)cc(OC)cc3OC)n2n1 | 3.73 | > 100 | –
COc1cc(OC)c(-c2cc(C)nc3nc(SCc4ccc(Cl)cc4)nn23)c(OC)c1 | 9.13 | > 100 | –
Cc1cc(Cl)n2nc(SCc3ccc(Br)cc3)nc2n1 | 22 | 75.1 | –
COc1cc(OC)c(-c2cc(C)nc3nc(SCc4cccc5ccccc45)nn23)c(OC)c1 | 17.4 | > 100 | –
COc1cc(OC)c(-c2cc(C)nc3nc(SCc4ccc(I)cc4)nn23)c(OC)c1 | 41.7 | – | –
COc1cc(OC)c(-c2cc(C)nc3nc(SCc4cccc(Cl)c4)nn23)c(OC)c1 | 15.9 | > 100 | –
COc1cc(OC)c(-c2cc(C)nc3nc(SCC4CCC4)nn23)c(OC)c1 | 20.2 | 82.5 | –
Cc1cc(-c2ccc3c(c2)OCCO3)n2nc(SCc3ccc(Br)cc3)nc2n1 | 37.4 | 70.9 | –
COc1cccc(OC)c1-c1cc(C)nc2nc(SCc3ccc(Br)cc3)nn12 | 37 | 75.6 | –
Cc1cc(-c2cccc(C(=O)O)c2)n2nc(SCc3ccc(Br)cc3)nc2n1 | 17.9 | > 100 | –
COc1ccc(CSc2nc3nc(C)cc(-c4c(OC)cc(OC)cc4OC)n3n2)cc1 | 11.5 | > 100 | –
Cc1cc(-c2ccc(-c3ccccc3)cc2)n2nc(SCc3ccc(Br)cc3)nc2n1 | 66.2 | 10.5 | –

SMILES | inhibition [1] [%] | IC50 [2] [µM] | further results
COc1cc(OC)c(-c2cc(C)nc3nc(SCc4cnc(Cl)s4)nn23)c(OC)c1 | 31.5 | 72.5 | –
Cc1cc(Br)n2nc(SCc3ccc(Br)cc3)nc2n1 | 47 | 68 | –
COc1cc(OC)c(-c2cc(C)nc3nc(SCC4CCOCC4)nn23)c(OC)c1 | 16.3 | > 50 | –
Cc1cc(-c2ccc(C(=O)O)cc2)n2nc(SCc3ccc(Br)cc3)nc2n1 | 20.1 | > 100 | –
COc1cc(-c2cc(C)nc3nc(SCc4ccc(Br)cc4)nn23)cc(OC)c1OC | 58.8 | 30.9 | –
COc1ccc(-c2cc(C)nc3nc(SCc4ccc(Br)cc4)nn23)cc1 | 34.6 | 72.4 | –
C#CCSc1nc2nc(C)cc(-c3c(OC)cc(OC)cc3OC)n2n1 | 5.84 | > 100 | –
Cc1cc(-c2cccc(C(=O)N3CCN(C)CC3)c2)n2nc(SCc3ccc(Br)cc3)nc2n1 | 23.4 | > 100 | –
COC(=O)c1cccc(Nc2cc(C)nc3nc(SCc4ccc(Br)cc4)nn23)c1 | 12.4 | > 100 | –
COc1cc(OC)c(-c2cc(C)nc3nc(SCC4CCCCC4)nn23)c(OC)c1 | 60 | 17.4 | –
COC(=O)c1ccc(CCc2cc(O)ccc2O)cc1 | – | – | IC50 [3]: 36.6 µM
COc1cccc(-c2cc(C)nc3nc(SCc4ccc(Br)cc4)nn23)c1 | 58.7 | 40.3 | –
COC(=O)c1ccc(Nc2cc(C)nc3nc(SCc4ccc(Br)cc4)nn23)cc1 | 12.4 | > 100 | –
COc1cc(OC)c(-c2cc(C)nc3nc(SCc4cccc(Cl)c4Cl)nn23)c(OC)c1 | 7.29 | > 100 | –
CCCSc1nc2nc(C)cc(-c3c(OC)cc(OC)cc3OC)n2n1 | 24.5 | > 100 | –
COc1cc(OC)c(-c2cc(C)nc3nc(SCCCc4ccccc4)nn23)c(OC)c1 | 20.3 | > 100 | –
COc1cc(OC)c(-c2cc(C)nc3nc(SCc4cccc(Br)c4)nn23)c(OC)c1 | 42.5 | 61 | –
COc1cc(OC)c(-c2cc(C)nc3nc(SCc4ccc(F)cc4)nn23)c(OC)c1 | 24 | 98.1 | –
O=c1[nH]cc(F)c(=O)[nH]1 [FLUOROURACIL] | – | – | IC50 [6]: 44.1 µM; IC50 [7]: 10.2 µM
COc1ccccc1-c1cc(C)nc2nc(SCc3ccc(Br)cc3)nn12 | 27.2 | > 100 | –
Cc1cc(-c2ccccc2)n2nc(SCc3ccc(Br)cc3)nc2n1 | 55.3 | 45.1 | –
Cc1cc(-c2ccc(C(=O)N3CCN(C)CC3)cc2)n2nc(SCc3ccc(Br)cc3)nc2n1 | 14.6 | > 100 | –
COc1cc(OC)c(-c2cc(C)nc3nc(SCC4CCCC4)nn23)c(OC)c1 | 28 | 62.3 | –
